Patent US20050019931A1, “Nucleic acids encoding antifungal drug targets and methods of use” (Elitra Pharmaceuticals, Inc., priority 2002, published 2005)

Legend:
[1] = tested on: bar-coded strains bearing heterozygous mutations in HIS3, TUB 1, ALG7, and ERG 11; conditions: mixed population; HIS3, TUB 1, ALG7, ERG 11 respectively; cited from earlier work
[2] = tested on: CaHIS3 (imidazoleglycerol phosphate dehydratase) wild type, heterozygote and GRACE strains; assay: Target level variation whole cell assay: sensitivity of CaHIS3 strains towards 3-aminotriazole; format: cell-based, Candida albicans; conditions: for sensitivity of CaHIS3 GRACE strain minimally expressing CaHIS3 (partial repression, threshold tetracycline): FIG. 6C/6D
Description: The data derived from these experiments clearly indicate that distinct levels of target gene products synthesized within the pathogen could be directly applied in whole cell assay based drug screens to identify novel antifungal compounds active against novel drug targets validated using the GRACE method.
3-AT is a competitive inhibitor of the enzyme encoded by CaHIS3, imidazoleglycerol phosphate dehydratase, and together serve as a model for a drug and drug target respectively. […] The phenotype observed is consistent with that expected in light of the predicted 7.5 fold overexpression of CaHIS3 determined by Northern bolt analysis (see FIG. 5). […] A third CaHIS3 expression level evaluated for differential sensitivity to 3-AT was produced by partial repression of the GRACE CaHIS3 strain using a threshold concentration of tetracycline 0.1% […].
(§1) Moreover, these experiments clearly indicate how distinct levels of target gene products synthesized within the pathogen could be directly applied in whole cell assay based drug screens to identify novel antifungal compounds against those novel drug targets validated using the GRACE method.

[3] = tested on: C. albicans; assay: Sensitivity of C. albicans to selection antibiotics (dominant selectable markers); format: cell-based, Candida albicans
Description: Several art-known methods are available to create a heterozygote mutant. In less preferred embodiments, auxotrophic markers, such as but not limited to CaURA3, CaHIS3, CaLEU2, or CaTRP1, could be used for gene disruption if desired. However, the preferred method of heterozygote construction in diploid fungi employs a genetically modified dominant selectable marker. C. albicans is sensitive to the nucleoside-like antibiotic streptothricin at a concentration of 200 micrograms per milliliter. The presence of the Escherichia coli SAT1 gene within C. albicans allows acetylation of the drug rendering it nontoxic and permitting the strain to grow in the presence of streptothricin at a concentration of 200 micrograms per milliliter. Expression of the SAT1 gene in C. albicans is made possible by engineering the gene so that its DNA sequence is altered to conform to the genetic code of this organism and by providing a CaACT1 promoter (Morschhauser et al. (1998) Mol. Gen. Genet. 257:412-420) and a CaPCK1 terminator sequence (Leuker et al. (1997) Gene 192: 235-40). This genetically modified marker is referred to as CaSAT1 which is the subject of a copending United States nonprovisional application, published under the publication no. US20010031724, which is incorporated herein by reference in its entirety. […]

[4] = tested on: CaERG11 GRACE strain; assay: GRACE strain drug resistance/sensitivity by increasing and decreasing target expression; format: cell-based, Candida albicans
Description: as §1

[5] = tested on: CaALG7 GRACE strain; assay: as above; format: cell-based, Candida albicans
Description: as §1

[6] = inhibitory 3-AT concentration, FIG. 6A
[7] = intermediate 3-AT concentration, FIG. 6B

Molecule: Nc1nc[nH]n1 [3-AT, 3-aminotriazole]
- sensitivity of the bar-coded strain heterozygous for the respective drug target versus other heterozygote bar-coded strains [1]: significantly greater sensitivity
- growth of CaHIS3 heterozygote strain [2, 6]: completely inhibit growth
- growth of wild type CaHIS3 strain [2, 6]: completely inhibit growth
- phenotype of CaHIS3 GRACE strain overexpressing CaHIS3 (constitutive tetracycline promoter expression) [2, 6]: resistance
- effect on tetracycline promoter-based overproducing CaHIS3 strain [2, 7]: unable to effect
- effect on wild type CaHIS3 strain [2, 7]: unable to effect
- sensitivity of heterozygous CaHIS3 strain (haploinsufficient phenotype) [2, 7]: enhanced sensitivity
- sensitivity of CaHIS3 GRACE strain minimally expressing CaHIS3 (partial repression, threshold tetracycline) ([2]; intermediate 3-AT concentration): enhanced drug sensitivity relative the heterozygous CaHIS3 strain
- sensitivity of CaHIS3 GRACE strain minimally expressing CaHIS3 (partial repression, threshold tetracycline) ([2]; intermediate 3-AT concentration, listed as 3-aminotriazole): hypersensitivity

Molecule: streptothricin
- sensitivity of C. albicans ([3]; concentration of 200 micrograms per milliliter): sensitive

Molecule: OC(Cn1cncn1)(Cn1cncn1)c1ccc(F)cc1F [fluconazole]
- sensitivity of the bar-coded strain heterozygous for the respective drug target versus other heterozygote bar-coded strains [1]: significantly greater sensitivity
- GRACE strain-specific phenotypes on increasing and decreasing expression of the known drug target [4]: drug resistance and sensitivity phenotypes

Molecule: tunicamycin
- sensitivity of the bar-coded strain heterozygous for the respective drug target versus other heterozygote bar-coded strains [1]: significantly greater sensitivity
- GRACE strain-specific phenotypes on increasing and decreasing expression of the known drug target [5]: drug resistance and sensitivity phenotypes

Molecule: CCCCNC(=O)n1c(NC(=O)OC)nc2ccccc21 [benomyl]
- sensitivity of the bar-coded strain heterozygous for the respective drug target versus other heterozygote bar-coded strains [1]: significantly greater sensitivity

Molecule: CN(CC[C@H](N)CC(=O)N[C@H]1C=C[C@H](n2ccc(N)nc2=O)O[C@@H]1C(=O)O)C(=N)N [blasticidin]
- sensitivity of C. albicans ([3]; concentration not given): sensitive
